Reference: patent publication US10576166B2, “Liver specific delivery of messenger RNA” (TRANSLATE BIO, INC., priority 2009, dated 2020)

Columns and labels:
[1] = system: firefly luciferase protein in livers and spleens; assay: Bioluminescence assay of expressed firefly luciferase in liver and spleen (biodistribution analysis); type: in vivo; conditions: female CD-1 mice, single 200 μg i.v. dose of encapsulated FFL mRNA, 4 hours post-injection
Procedure: (§1) All studies were performed using female CD-1 mice of approximately 3-weeks age at the beginning of each experiment. Samples were introduced by a single bolus tail-vein injection of an equivalent total dose of 200 μg of encapsulated FFL mRNA. Four hours post-injection the mice were sacrificed and perfused with saline.
(§2) The liver and spleen of each mouse was harvested, apportioned into three parts, and stored in either, (i) 10% neutral buffered formalin, (ii) snap-frozen and stored at −80° C. for bioluminescence analysis (see below), or for in situ hybridization studies, or (iii) liver sections were isolated in isopentane (2-methylbutane) bath, maintained at −35° C., rinsed with 1×PBS, lightly patted with a kimwipe to remove any excess fluid, placed in the bath for approximately 5-7 minutes, after which the liver was removed, wrapped in foil and stored in a small sterile plastic bag at −80° C. until ready for assay.
The bioluminescence assay was conducted using a Promega Luciferase Assay System (Item # E1500 Promega). […]
The Luciferase Assay Reagent was prepared by adding 10 mL of Luciferase Assay Buffer to Luciferase Assay Substrate and mix via vortex. […] Each plate was inserted into the appropriate chambers using a Molecular Device Flex Station instrument and measure the luminescence (measured in relative light units (RLU)). […]

[2] = system: firefly luciferase protein in hepatocytes; assay: Immunohistochemical analysis of liver with anti-firefly antibody; type: in vivo; conditions: FFL mRNA in lipid transfer vehicle of cholesterol, DOPE, DLinDMA and DMG-PEG2000; treated mice, FIGS. 5B and 5C
From the text: FIG. 5 illustrates immunohistochemical staining of mouse livers for the detection of firefly luciferase protein. […] Luciferase protein is observed throughout the cytoplasm of the hepatocytes. The abbreviations (S) and (H) correspond to sinusoidal cells and hepatocytes, respectively.
The FFL mRNA was packaged and delivered via a lipid transfer vehicle formulation consisting of cholesterol, DOPE, DLinDMA, and DMG-PEG2000 in a manner similar to that described supra.
The translation of the FFL mRNA into its respective protein has been successfully identified via immunohistochemical analysis (FIG. 5).

[3] = system: codon-optimized firefly luciferase mRNA in liver; assay: In situ hybridization of liver sections with 35S-labeled riboprobes; type: in vivo, CD-1 mice; conditions: livers of injected animals, 100× magnification, FIG. 4A
Procedure: as §1, §2
Slide preparation and analysis was performed as follows: Each liver was frozen at −35° C. according to the procedure described above. The frozen livers were cut into 6 micrometer sections and mounted onto glass microscope slides. […]
Photographic development was carried out in Kodak D-19. Sections were counterstained lightly with cresyl violet and analyzed using brightfield and darkfield microscopy. […]

Compound | Luminescence / mRNA delivery in liver versus spleen [1] | Detection of expressed firefly protein by immunohistochemistry [2] | Detection of FFL mRNA in liver, dark field illumination, antisense probe [3]
CC(C)CCCC(C)C1CCC2C3CC=C4CC(OC(=O)CCc5cnc[nH]5)CCC4(C)C3CCC12C [ICE, (3S,10R,13R,17R)-10,13-dimethyl-17-((R)-6-methylheptan-2-yl)-2,3,4,7,8,9,10,11,12,13,14,15,16,17-tetradecahydro-1H-cyclopenta[a]phenanthren-3-yl 3-(1H-imidazol-4-yl)propanoate] | enriched delivery of mRNA to liver versus spleen |  | 
FFL mRNA: Codon-optimized firefly luciferase messenger RNA, SEQ ID NO: 1, with 5′ Cap1 and 3′ poly(A) tail of approximately 200 nucleotides |  | can be observed in the hepatocytes of treated mice | detected as bright spots
